Data: ChEMBL document CHEMBL5724914, “Linking interpersonal differences in gut microbiota composition and drug biotransformation activity” (2024)

How the values were obtained:
Details in all cases: 2 µM
[1] = The drug is tested on Z-011 corresponding to mouse gut metagenome with ENA study accession number: PRJEB37062 and ENA sample accession number: ERS12561811 for biotransformation under anaerobic condition. The drug concentrations were measured over 9 timepoints collected between 0 and 24 hours of incubation by liquid-chromatography-coupled mass spectrometry (LC–MS)
[2] = The drug is tested on Z-029 corresponding to rat gut metagenome with ENA study accession number: PRJEB37062 and ENA sample accession number: ERS12561828 for biotransformation under anaerobic condition. The drug concentrations were measured over 9 timepoints collected between 0 and 24 hours of incubation by liquid-chromatography-coupled mass spectrometry (LC–MS)
[3] = The drug is tested on Z-007 corresponding to rat gut metagenome with ENA study accession number: PRJEB37062 and ENA sample accession number: ERS12561807 for biotransformation under anaerobic condition. The drug concentrations were measured over 9 timepoints collected between 0 and 24 hours of incubation by liquid-chromatography-coupled mass spectrometry (LC–MS)
[4] = The drug is tested on Z-024 corresponding to pig gut metagenome with ENA study accession number: PRJEB37062 and ENA sample accession number: ERS12561823 for biotransformation under anaerobic condition. The drug concentrations were measured over 9 timepoints collected between 0 and 24 hours of incubation by liquid-chromatography-coupled mass spectrometry (LC–MS)
[5] = The drug is tested on Z-012 corresponding to metagenome with ENA study accession number: PRJEB37062 and ENA sample accession number: ERS12561812 for biotransformation under anaerobic condition. The drug concentrations were measured over 9 timepoints collected between 0 and 24 hours of incubation by liquid-chromatography-coupled mass spectrometry (LC–MS)
[6] = The drug is tested on Z-002 corresponding to rabbit gut metagenome with ENA study accession number: PRJEB37062 and ENA sample accession number: ERS12561802 for biotransformation under anaerobic condition. The drug concentrations were measured over 9 timepoints collected between 0 and 24 hours of incubation by liquid-chromatography-coupled mass spectrometry (LC–MS)
[7] = The drug is tested on Z-003 corresponding to pig gut metagenome with ENA study accession number: PRJEB37062 and ENA sample accession number: ERS12561803 for biotransformation under anaerobic condition. The drug concentrations were measured over 9 timepoints collected between 0 and 24 hours of incubation by liquid-chromatography-coupled mass spectrometry (LC–MS)
[8] = The drug is tested on Z-006 corresponding to mouse gut metagenome with ENA study accession number: PRJEB37062 and ENA sample accession number: ERS12561806 for biotransformation under anaerobic condition. The drug concentrations were measured over 9 timepoints collected between 0 and 24 hours of incubation by liquid-chromatography-coupled mass spectrometry (LC–MS)
[9] = The drug is tested on Z-023 corresponding to metagenome with ENA study accession number: PRJEB37062 and ENA sample accession number: ERS12561822 for biotransformation under anaerobic condition. The drug concentrations were measured over 9 timepoints collected between 0 and 24 hours of incubation by liquid-chromatography-coupled mass spectrometry (LC–MS)
[10] = The drug is tested on Z-001 corresponding to mouse gut metagenome with ENA study accession number: PRJEB37062 and ENA sample accession number: ERS12561801 for biotransformation under anaerobic condition. The drug concentrations were measured over 9 timepoints collected between 0 and 24 hours of incubation by liquid-chromatography-coupled mass spectrometry (LC–MS)
[11] = The drug is tested on Z-021 corresponding to metagenome with ENA study accession number: PRJEB37062 and ENA sample accession number: ERS12561820 for biotransformation under anaerobic condition. The drug concentrations were measured over 9 timepoints collected between 0 and 24 hours of incubation by liquid-chromatography-coupled mass spectrometry (LC–MS)
[12] = The drug is tested on Z-010 corresponding to metagenome with ENA study accession number: PRJEB37062 and ENA sample accession number: ERS12561810 for biotransformation under anaerobic condition. The drug concentrations were measured over 9 timepoints collected between 0 and 24 hours of incubation by liquid-chromatography-coupled mass spectrometry (LC–MS)
[13] = The drug is tested on Z-005 corresponding to metagenome with ENA study accession number: PRJEB37062 and ENA sample accession number: ERS12561805 for biotransformation under anaerobic condition. The drug concentrations were measured over 9 timepoints collected between 0 and 24 hours of incubation by liquid-chromatography-coupled mass spectrometry (LC–MS)
[14] = The drug is tested on Z-009 corresponding to pig gut metagenome with ENA study accession number: PRJEB37062 and ENA sample accession number: ERS12561809 for biotransformation under anaerobic condition. The drug concentrations were measured over 9 timepoints collected between 0 and 24 hours of incubation by liquid-chromatography-coupled mass spectrometry (LC–MS)
[15] = The drug is tested on Z-013 corresponding to rabbit gut metagenome with ENA study accession number: PRJEB37062 and ENA sample accession number: ERS12561813 for biotransformation under anaerobic condition. The drug concentrations were measured over 9 timepoints collected between 0 and 24 hours of incubation by liquid-chromatography-coupled mass spectrometry (LC–MS)
[16] = The drug is tested on Z-027 corresponding to metagenome with ENA study accession number: PRJEB37062 and ENA sample accession number: ERS12561826 for biotransformation under anaerobic condition. The drug concentrations were measured over 9 timepoints collected between 0 and 24 hours of incubation by liquid-chromatography-coupled mass spectrometry (LC–MS)
[17] = The drug is tested on Z-030 corresponding to mouse gut metagenome with ENA study accession number: PRJEB37062 and ENA sample accession number: ERS12561829 for biotransformation under anaerobic condition. The drug concentrations were measured over 9 timepoints collected between 0 and 24 hours of incubation by liquid-chromatography-coupled mass spectrometry (LC–MS)
[18] = The drug is tested on Z-028 corresponding to mouse gut metagenome with ENA study accession number: PRJEB37062 and ENA sample accession number: ERS12561827 for biotransformation under anaerobic condition. The drug concentrations were measured over 9 timepoints collected between 0 and 24 hours of incubation by liquid-chromatography-coupled mass spectrometry (LC–MS)
[19] = The drug is tested on Z-025 corresponding to rabbit gut metagenome with ENA study accession number: PRJEB37062 and ENA sample accession number: ERS12561824 for biotransformation under anaerobic condition. The drug concentrations were measured over 9 timepoints collected between 0 and 24 hours of incubation by liquid-chromatography-coupled mass spectrometry (LC–MS)
[20] = The drug is tested on Z-004 corresponding to metagenome with ENA study accession number: PRJEB37062 and ENA sample accession number: ERS12561804 for biotransformation under anaerobic condition. The drug concentrations were measured over 9 timepoints collected between 0 and 24 hours of incubation by liquid-chromatography-coupled mass spectrometry (LC–MS)
[21] = The drug is tested on Z-022 corresponding to mouse gut metagenome with ENA study accession number: PRJEB37062 and ENA sample accession number: ERS12561821 for biotransformation under anaerobic condition. The drug concentrations were measured over 9 timepoints collected between 0 and 24 hours of incubation by liquid-chromatography-coupled mass spectrometry (LC–MS)
[22] = The drug is tested on Z-026 corresponding to metagenome with ENA study accession number: PRJEB37062 and ENA sample accession number: ERS12561825 for biotransformation under anaerobic condition. The drug concentrations were measured over 9 timepoints collected between 0 and 24 hours of incubation by liquid-chromatography-coupled mass spectrometry (LC–MS)
[23] = The drug is tested on Z-008 corresponding to metagenome with ENA study accession number: PRJEB37062 and ENA sample accession number: ERS12561808 for biotransformation under anaerobic condition. The drug concentrations were measured over 9 timepoints collected between 0 and 24 hours of incubation by liquid-chromatography-coupled mass spectrometry (LC–MS)
[24] = The drug is tested on Z-016 corresponding to mouse gut metagenome with ENA study accession number: PRJEB37062 and ENA sample accession number: ERS12561815 for biotransformation under anaerobic condition. The drug concentrations were measured over 9 timepoints collected between 0 and 24 hours of incubation by liquid-chromatography-coupled mass spectrometry (LC–MS)

Measured: Bacterial Biotransformation
Also: call rule not given here.

CN1CCCCC1CCN1c2ccccc2Sc2ccc([S+](C)[O-])cc21.O=S(=O)(O)c1ccccc1 (centres undefined) [MESORIDAZINE BESYLATE]
Compound NOT metabolized: [1] | [2] | [3] | [4] | [8] | [9] | [10] | [11] | [15] | [16] | [17] | [18] | [21] | [22] | [23]
Compound metabolized: [5] | [6] | [7] | [12] | [13] | [14] | [19] | [20] | [24]
